The text below walks through data of US7671212B2, “Isothiazole dioxides as CXC- and CC-chemokine receptor ligands” (Schering Corporation, priority 2003, dated 2010).

The structures appear in SMILES notation. Where “and” joins values, the source holds several entries; their conditions need not be identical. Equal entries are not always repeated.

Assay [1] has as its target T1, hCXCR2 (Homo sapiens, UniProt P25025).
T1 construct: purchased Biosignal / Biosignal Packard; host or cells: CHO
T1 sequence (P25025 1-360): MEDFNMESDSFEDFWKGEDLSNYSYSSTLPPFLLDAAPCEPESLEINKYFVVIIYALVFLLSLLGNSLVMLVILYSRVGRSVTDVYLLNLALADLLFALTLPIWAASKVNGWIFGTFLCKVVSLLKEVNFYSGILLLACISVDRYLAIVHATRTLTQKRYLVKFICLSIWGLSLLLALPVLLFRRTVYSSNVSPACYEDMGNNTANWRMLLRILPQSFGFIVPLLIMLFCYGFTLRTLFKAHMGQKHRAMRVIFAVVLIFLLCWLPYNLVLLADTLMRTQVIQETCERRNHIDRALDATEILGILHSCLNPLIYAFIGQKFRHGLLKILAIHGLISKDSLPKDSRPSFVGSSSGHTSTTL
As to the kind of experiment: CXCR2 SPA assay ([125I]-IL-8 binding, incl. alternative 50 μl and 200 μl protocols). The following applies: hCXCR2-CHO membranes. As to the method:
For each well of a 96 well plate, a reaction mixture of 4 μg hCXCR2-CHO overexpressing membranes (Biosignal) and 200 μg/well WGA-SPA beads (Amersham) in 100 μl was prepared in CXCR2 assay buffer (25 mM HEPES, pH 7.4, 2 mM CaCl2, 1 mM MgCl2). A 0.4 nM stock of ligand, [125I]-IL-8 (NEN), was prepared in the CXCR2 assay buffer. 20× stock solutions of test compounds were prepared in DMSO (Sigma). A 6× stock solution of GRO-α (R&D) was prepared in CXCR2 assay buffer. The above solutions were added to a 96-well assay plate (PerkinElmer or Corning) as follows: 10 μl test compound or DMSO, 40 ul CXCR2 assay buffer or GRO-α stock, 100 μl of reaction mixture, 50 μl of ligand stock (Final [Ligand]=0.1 nM). When 40× stock solutions of test compounds in DMSO were prepared, then the above protocol was used except instead 5 μl test compound or DMSO and 45 μl CXCR2 assay buffer were used.
Alternative CXCR2 SPA Assay
Protocol Using the CXCR2 50 μl Assay
For each 50 μl reaction, a working stock of 0.031 μg/μl hCXCR2-CHO over-expressing membranes with a specific activity of 0.4 pmol/mg (Biosignal Packard) and 2.5 μg/μl WGA-SPA beads (Perkin Elmer Life Sciences) was prepared in CXCR2 assay buffer (25 mM HEPES, pH 7.4, 2.0 mM CaCl2, 1 mM MgCl2) (Sigma). This mixture was incubated on ice for 5 minutes. A 0.50 nM stock of ligand, [^125I]-IL-8 (Perkin Elmer Life Sciences), was prepared in the CXCR2 assay buffer. Test compounds were first serially diluted by half-logs in DMSO (Sigma) and then diluted 13.3-fold in CXCR2 assay buffer. The above solutions were added to a Corning NBS (non-binding surface) 96-well assay plate as follows: 20 μl test compound or 7.5% DMSO (final [DMSO]=3%), 20 μl of membranes and SPA bead mixture (final [membrane]=0.625 μg/reaction; final [SPA bead]=50 μg/reaction), 10 μl of ligand stock (final [^125I-IL-8]=0.10 nM). The assay plates were incubated for 2 hours before cpm/well were determined in a Microbeta Trilux counter (Perkin Elmer Life Sciences). IC50 values were quantified using nonlinear regression analysis in GraphPad Prism.
Protocol Using the CXCR2 200 μl Assay
For each 200 μl reaction, a working stock of 0.02 μg/μl hCXCR2-CHO over-expressing membranes with a specific activity of 0.6 pmol/mg (Biosignal Packard) and 2 μg/μl WGA-SPA beads (Perkin Elmer Life Sciences) was prepared in CXCR2 assay buffer (25 mM HEPES, pH 7.4, 2.0 mM CaCl2, 1 mM MgCl2) (Sigma). This mixture was incubated on ice for 5 minutes. A 0.40 nM stock of ligand, [^125I]-IL-8 (Perkin Elmer Life Sciences), was prepared in the CXCR2 assay buffer. Test compounds were first serially diluted by half-logs in DMSO (Sigma) and then diluted […] in CXCR2 assay buffer. The above solutions were added to a Corning NBS (non-binding surface) 96-well assay plate as follows: 50 μl test compound or 10% DMSO (final [DMSO]=2.5%), 100 μl of membranes and SPA bead mixture (final [membrane]=2 μg/reaction; final [SPA bead]=200 μg/reaction), 50 μl of ligand stock (final [^125I-IL-8]=0.10 nM). The assay plates were incubated for 2 hours before cpm/well were determined in a Microbeta Trilux counter (Perkin Elmer Life Sciences). IC50 values were quantified using nonlinear regression analysis in GraphPad Prism.

The target of assay [2] is T2, CCR7 (Homo sapiens, UniProt P32248).
T2 construct: expressed in transfected cells; host or cells: Ba/F3
T2 sequence (P32248 25-378): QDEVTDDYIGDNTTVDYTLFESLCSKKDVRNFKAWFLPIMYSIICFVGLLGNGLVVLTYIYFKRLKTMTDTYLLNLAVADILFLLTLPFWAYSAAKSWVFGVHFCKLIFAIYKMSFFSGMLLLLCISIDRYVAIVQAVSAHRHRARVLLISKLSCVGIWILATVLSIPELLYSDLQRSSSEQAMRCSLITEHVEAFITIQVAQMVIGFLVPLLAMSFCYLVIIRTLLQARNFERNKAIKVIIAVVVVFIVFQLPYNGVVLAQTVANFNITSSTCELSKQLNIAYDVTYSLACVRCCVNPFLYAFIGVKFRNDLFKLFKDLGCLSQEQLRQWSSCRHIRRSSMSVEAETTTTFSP
As to the kind of experiment: CCR7 [35S]GTPγS exchange assay (SPA, Ba/F3-CCR7 membranes, MIP-3β). Type of assay: biochemical. To be noted: 2 nM MIP-3β. On the procedure: CCR7 Membrane Preparation.
Ba/F3-CCR7 membranes were prepared as previously described (Hipkin et al., J. Biol. Chem., 272, 1997, 13869-76). Cells were pelleted by centrifugation, incubated in homogenization buffer (10 mM Tris-HCl, 5 mM EDTA, 3 mM EGTA, pH 7.6) and 1 μM PMSF for 30 min. on ice. The cells were then lysed with a Dounce homogenizer using stirrer type RZR3 polytron homogenizer (Caframo, Wiarton, Ont.) with 12 strokes at 900 RPM. The intact cells and nuclei were removed by centrifugation at 500×g for 5 min. The cell membranes in the supernatant were then pelleted by centrifugation at 100,000×g for 30 min. The membranes were then resuspended in glygly buffer (20 mM glycylglycine, 1 mM MgCl2, 250 mM sucrose, pH 7.2), aliquoted, quick frozen and stored at −80° C.
CCR7 [^35S]GTPγS Exchange Assay.
The exchange of guanosine 5′-[γ-^35S]triphospate ([^35S]GTPγS, triethylammonium salt; specific activity=1250 Ci/mmol; NEN Boston, Mass.) was measured using a scintillation proximity assay (SPA) as previously described (Cox, et. al., Mol. Pharmacol., 59, 2001, 707-15). […] Membrane-bound [^35S]GTPγS was measured using a 1450 Microbeta Trilux counter (Wallac, Gaithersburg, Md.).
For orientation: Binding of GTPγS marks nucleotide exchange on a G protein.

For assay [3], the target named is T3, hCXCR1 (Homo sapiens, UniProt P25024).
T3 construct: purchased Biosignal / Biosignal Packard; Euroscreen (alternative protocol); host or cells: CHO
T3 sequence (P25024 1-350): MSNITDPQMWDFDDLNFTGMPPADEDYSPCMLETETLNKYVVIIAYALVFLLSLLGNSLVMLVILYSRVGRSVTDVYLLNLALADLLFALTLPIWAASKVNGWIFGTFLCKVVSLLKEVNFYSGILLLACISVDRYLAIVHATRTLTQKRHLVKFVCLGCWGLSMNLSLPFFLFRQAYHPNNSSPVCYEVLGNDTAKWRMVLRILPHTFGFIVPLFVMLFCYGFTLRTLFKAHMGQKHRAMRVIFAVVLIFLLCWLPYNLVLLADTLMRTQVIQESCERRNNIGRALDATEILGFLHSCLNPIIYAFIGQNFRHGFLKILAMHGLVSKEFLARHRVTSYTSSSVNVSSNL
As to the kind of experiment: CXCR1 SPA assay ([125I]-IL-8 binding, incl. alternative Biosignal Packard and Euroscreen membrane protocols). The following applies: hCXCR1-CHO membranes. On the procedure:
For each well of a 96 well plate, a reaction mixture of 10 μg hCXCR1-CHO overexpressing membranes (Biosignal) and 200 μg/well WGA-SPA beads (Amersham) in 100 μl was prepared in CXCR1 assay buffer (25 mM HEPES, pH 7.8, 2 mM CaCl2, 1 mM MgCl2, 125 mM NaCl, 0.1% BSA) (Sigma). A 0.4 nM stock of ligand, [125I]-IL-8 (NEN) was prepared in the CXCR1 assay buffer. 20× stock solutions of test compounds were prepared in DMSO (Sigma). A 6× stock solution of IL-8 (R&D) was prepared in CXCR2 assay buffer. The above solutions were added to a 96-well assay plate (PerkinElmer) as follows: 10 μl test compound or DMSO, 40 μl CXCR1 assay buffer or IL-8 stock, 100 μl of reaction mixture, 50 μl of ligand stock (Final [Ligand]=0.1 nM).
Alternative CXCR1 SPA Assay
Protocol Using CXCR1-Expressing Membranes from Biosignal Packard
For each 50 μl reaction, a working stock of 0.25 μg/μl hCXCR1-CHO over-expressing membranes with a specific activity of 0.05 pmol/mg (Biosignal Packard) and 25 μg/μl WGA-SPA beads (Perkin Elmer Life Sciences) was prepared in CXCR1 assay buffer (25 mM HEPES, pH 7.8, 0.1 mM CaCl2, 1 mM MgCl2, 100 mM NaCl) (Sigma). […] The assay plates were incubated for 4 hours before cpm/well were determined in a Microbeta Trilux counter (Perkin Elmer Life Sciences). IC50 values were quantified using nonlinear regression analysis in GraphPad Prism. […]

Usually Ki stands for the equilibrium dissociation constant of an inhibitor or competing ligand from its target. The term EC50 denotes the concentration that produces a half-maximal response. High values mean lower potency in that assay, low ones higher potency in that assay.

Turning to `CCOC(=O)C1=C(Nc2cccc(C(=O)N(C)C)c2O)C(N[C@H](CC)c2ccc(C)o2)=NS1(=O)=O` [Example 1], in assay [1], the Ki fell in the range of 7.6 to 51 nM.

In turn, `CCOC(=O)C1=C(Nc2cccc(C(=O)N(C)C)c2O)C(N[C@H](CC)c2cc(C(C)C)co2)=NS1(=O)=O` [Example 162] yielded an EC50 in assay [2] of 9500 nM.

Take `CC[C@@H](NC1=NS(=O)(=O)C=C1Nc1cccc(C(=O)N(C)C)c1O)c1ccc(C)o1` [Example 2]: in assay [1], the Ki is 7.6 nM and 7.6 to 51 nM.

As to `Cc1cc([C@H](NC2=NS(=O)(=O)C=C2Nc2cccc(C(=O)N(C)C)c2O)C(C)C)oc1C` [Example 6], the inhibition constant Ki is 19 nM and 7.6 to 51 nM in assay [1]; 345 nM in assay [3].

`CCOC(=O)C1=C(Nc2cccc(C(=O)N(C)C)c2O)C(N[C@@H](c2cc(C)c(C)o2)C(C)C)=NS1(=O)=O` [Example 5]: the Ki in assay [1] was in the range of 7.6 to 51 nM.

`CC[C@@H](NC1=CS(=O)(=O)N=C1Nc1cccc(C(=O)N(C)C)c1O)c1ccccc1` [Example 4] displayed a Ki in assay [1] of 7.6 to 51 nM.

As to `CCOC(=O)C1=C(N[C@H](CC)c2ccccc2)C(Nc2cccc(C(=O)N(C)C)c2O)=NS1(=O)=O` [Example 3], the Ki in assay [1] was 7.6 to 51 nM.
